Test results reported in patent US11026426B2, “Oxadiazole and phenol derivatives as antibacterial and/or herbicidal agents” (NORTHERN ILLINOIS RESEARCH FOUNDATION, priority 2017, dated 2021).

Experiments:
LeIspE = LeIspE (Solanum lycopersicum, UniProt P93841); experiment: University of Hamburg photometric enzymatic inhibition assay LeIspE; format: biochemical, Lycopersicon esculentum; settings: read-out: LeIspE IC50
Method in brief: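 Photometric coupled assay with pyruvate kinase/lactate dehydrogenase following NADH (460 μM). Mix: 100 mM Tris-HCl pH 8.0, 10 mM MgCl2, 1 mM DTT, 2.5 mM phosphoenolpyruvate, 2 mM ATP, 1 mM 4-diphosphocytidyl-2-C-methylerythritol, 1.1% DMSO, 2.4 mU IspE; incubated at 27° C.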

Bacillus cereus = experiment: Antibacterial preliminary screening BC; format: cell-based; settings: score 0-3; further: key: 0 represents no inhibition; 3 is comparable to commercial antibiotic control
AtIspD = AtIspD (Arabidopsis thaliana, UniProt P69834); experiment: University of Hamburg photometric enzymatic inhibition assay AtIspD; format: biochemical; settings: read-out: AtIspD IC50
Sequence of AtIspD (P69834 62-302): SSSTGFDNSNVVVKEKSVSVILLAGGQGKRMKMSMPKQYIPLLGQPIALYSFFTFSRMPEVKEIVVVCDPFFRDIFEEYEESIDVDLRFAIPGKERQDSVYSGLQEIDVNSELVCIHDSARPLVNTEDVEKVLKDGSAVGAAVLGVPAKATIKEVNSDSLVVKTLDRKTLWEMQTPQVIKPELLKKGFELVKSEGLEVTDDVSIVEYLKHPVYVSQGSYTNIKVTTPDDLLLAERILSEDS
Method in brief: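 Coupled photometric assay: 2.4 mU AtIspD with 1 mM (2R,3S)-2,3-dihydroxy-4-oxopentyl phosphate, 2.1 mM CTP, excess IspE (0.4 U), ATP, pyruvate kinase/lactate dehydrogenase and 460 μM NADH. Run in 100 mM Tris-HCl pH 8.0, 10 mM MgCl2, 1 mM DTT, 1.1% DMSO at 27 °C, monitored photometrically.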

Mycobacterium smegmatis = experiment: Antibacterial preliminary screening MS; format: cell-based; settings: score 0-3; further: key: 0 represents no inhibition; 3 is comparable to commercial antibiotic control
Pseudomonas aeruginosa = experiment: Antibacterial preliminary screening PA; format: cell-based; settings: for PA score: score 0-3
Escherichia coli = experiment: Antibacterial preliminary screening EC; format: cell-based; settings: score 0-3; further: key: 0 represents no inhibition; 3 is comparable to commercial antibiotic control
AtIspF = AtIspF (Arabidopsis thaliana, UniProt Q9CAK8); experiment: University of Hamburg photometric enzymatic inhibition assay AtIspF; format: biochemical; settings: read-out: AtIspF IC50
Sequence of AtIspF (Q9CAK8 53-231): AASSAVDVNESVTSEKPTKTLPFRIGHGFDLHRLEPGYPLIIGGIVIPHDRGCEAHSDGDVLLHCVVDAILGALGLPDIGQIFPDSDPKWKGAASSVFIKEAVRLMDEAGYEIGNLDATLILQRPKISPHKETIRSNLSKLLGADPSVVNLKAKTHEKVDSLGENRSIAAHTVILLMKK
Method in brief: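 Coupled photometric assay (CMP kinase/pyruvate kinase/lactate dehydrogenase, NADH consumption) with 2.4 mU AtIspF and 1 mM 4-diphosphocytidyl-2C-methylerythritol 2-phosphate, 2 mM ATP, in 100 mM Tris-HCl pH 8.0, 10 mM MgCl2, 1.1% DMSO. Monitored at 27 °C.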

Corynebacterium xerosis = experiment: Antibacterial preliminary screening CX; format: cell-based; settings: score 0-3; further: key: 0 represents no inhibition; 3 is comparable to commercial antibiotic control
Micrococcus luteus = experiment: Antibacterial preliminary screening ML; format: cell-based; settings: score 0-3
Klebsiella pneumonia = experiment: Antibacterial preliminary screening KP; format: cell-based; settings: score 0-3
[1] = target: T1, Mycobacterium tuberculosis IspD (MtIspD) (Mycobacterium tuberculosis, UniProt P9WKG9); experiment: Thermal shift assay against MtIspD; format: binding
T1 sequence (P9WKG9 1-231): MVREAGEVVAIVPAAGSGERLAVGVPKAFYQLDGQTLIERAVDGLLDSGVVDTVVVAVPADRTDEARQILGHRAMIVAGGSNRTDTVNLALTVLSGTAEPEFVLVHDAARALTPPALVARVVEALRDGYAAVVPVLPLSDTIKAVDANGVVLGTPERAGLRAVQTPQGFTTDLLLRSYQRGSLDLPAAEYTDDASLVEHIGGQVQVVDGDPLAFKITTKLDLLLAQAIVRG

lettuce seeds = experiment: Lettuce leaf assay; format: in vivo; set-up: key: 0 (no effect); 5(complete inhibition or bleaching); settings: ranking 0-5
Method in brief: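 Qualitative assay: compounds in volatile organic solvent applied to filter paper in a petri dish, solvent evaporated, lettuce seeds and 5 mL water added to give test concentrations. Germination, root development and leaf bleaching scored days 3 and 4, ranked 0 (no effect) to 5 (complete inhibition or bleaching).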

[2] = target: Lycopersicon esculentum IspE (LeIspE) (Solanum lycopersicum, UniProt P93841); experiment: Thermal shift assay against LeIspE; format: binding
Sequence of Lycopersicon esculentum IspE (LeIspE) (P93841 89-401): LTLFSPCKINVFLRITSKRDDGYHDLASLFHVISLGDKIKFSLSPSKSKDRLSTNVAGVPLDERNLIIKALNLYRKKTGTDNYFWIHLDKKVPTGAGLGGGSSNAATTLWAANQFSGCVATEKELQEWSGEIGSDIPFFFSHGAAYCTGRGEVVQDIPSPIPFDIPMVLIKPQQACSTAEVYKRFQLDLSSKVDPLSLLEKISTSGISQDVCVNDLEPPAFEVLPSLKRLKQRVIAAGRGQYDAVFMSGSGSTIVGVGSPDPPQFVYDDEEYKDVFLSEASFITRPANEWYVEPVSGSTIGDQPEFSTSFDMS

[3] = system: Burkholderia thailandensis; format: cell-based; settings: preliminary screening, score 0-3
[4] = system: Corynebacterium pseudodiphtheriae; experiment: Antibacterial preliminary screening CP; format: cell-based; settings: score 0-3;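 further: 0 is no inhibition and 3 matches the commercial antibiotic control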

Sequence of LeIspE (P93841 89-401): as above

SMILES	IC50 (LeIspE)	BC score (Bacillus cereus)	IC50 (AtIspD)	melting point	MS score (Mycobacterium smegmatis)	PA score (Pseudomonas aeruginosa)	EC score (Escherichia coli)	IC50 (AtIspF)	CX score (Corynebacterium xerosis)	ML score (Micrococcus luteus)	KP score (Klebsiella pneumonia)	MtIspD melting point change [1]	MtIspD melting temp [1]	LeIspE melting point change [2]	LeIspE melting temp [2]	BT score [3]	CP score [4]	Bleaching (lettuce seeds; 0.15 mM)	Germination (lettuce seeds; 0.15 mM)	Root Dev. (lettuce seeds; 0.15 mM)	also measured
Cc1ccc(-c2nnc(-c3cc4ccccc4[nH]3)o2)cc1 [HGN-242, 2-(1H-indol-2-yl)-5-(p-tolyl)-1,3,4-oxadiazole]	109 ± 35 µM	0	225 ± 17 µM	228 to 234 °C	0	0	0	> 1000 µM	0	0	0	0.8 °C	48.8 °C	−1.75 °C	47.75 °C	0	0				Bleaching (lettuce seeds; 0.5 mM): 0; Germination (lettuce seeds; 0.5 mM): 2; Root Dev. (lettuce seeds; 0.5 mM): 0; Bleaching (lettuce seeds; 1.0 mM): 0; Germination (lettuce seeds; 1.0 mM): 4; Root Dev. (lettuce seeds; 1.0 mM): 0
COc1ccc(-c2nnc(-c3nc4ccccc4s3)o2)cc1 [HGN-336, 2-(benzo[d]thiazol-2-yl)-5-(4-methoxyphenyl)-1,3,4-oxadiazole]	493 ± 49 µM	0	> 500 µM	167 to 169 °C	0	0	0	> 500 µM	0	0	0		49.5 °C	−1.25 °C	48.25 °C	0	0	0	1	0	Bleaching (lettuce seeds; 0.3 mM): 0; Germination (lettuce seeds; 0.3 mM): 0; Root Dev. (lettuce seeds; 0.3 mM): 0
C(=C\c1nnc(-c2nc3ccccc3s2)o1)/c1ccccc1 [HGN-335, (E)-2-(benzo[d]thiazol-2-yl)-5-styryl-1,3,4-oxadiazole]	> 500 µM	0	> 500 µM	202 to 204 °C	0	1	0	> 500 µM	0	0	0	0.5 °C	48.5 °C	−1.50 °C	48.00 °C	0	0				effectiveness against Pseudomonas aeruginosa (Pseudomonas aeruginosa): slightly effective; Bleaching (lettuce seeds; 0.1 mM): 0; Germination (lettuce seeds; 0.1 mM): 0; Root Dev. (lettuce seeds; 0.1 mM): 0; Bleaching (lettuce seeds; 0.2 mM): 0; Germination (lettuce seeds; 0.2 mM): 0; Root Dev. (lettuce seeds; 0.2 mM): 0
Clc1ccc(-c2nnc(-c3nc4ccccc4s3)o2)cc1 [HGN-339, 2-(benzo[d]thiazol-2-yl)-5-(4-chlorophenyl)-1,3,4-oxadiazole]	> 500 µM	0	158 µM	161 to 163 °C	0	0	0	> 500 µM	0	0	0	1.3 °C	49.3 °C	−2.00 °C	47.50 °C	0	0	0	0	0	Bleaching (lettuce seeds; 0.3 mM): 0; Germination (lettuce seeds; 0.3 mM): 0; Root Dev. (lettuce seeds; 0.3 mM): 0
Cc1ccc(-c2nnc(-c3nc4ccccc4s3)o2)cc1 [HGN-338, 2-(benzo[d]thiazol-2-yl)-5-(p-tolyl)-1,3,4-oxadiazole]	> 500 µM	0	> 500 µM	155 to 160 °C	0	0	0	> 500 µM	0	0	0	0.0 °C	48.0 °C	−1.50 °C	48.00 °C	0	0	0	0	0	Bleaching (lettuce seeds; 0.3 mM): 0; Germination (lettuce seeds; 0.3 mM): 1; Root Dev. (lettuce seeds; 0.3 mM): 0
